The values below come from patent publication US10301298B2, “Methods, compounds, and compositions for the treatment of angiotensin-related diseases” (University of Southern California, priority 2013, dated 2019).

Bounds are passed on as bounds.

For assay [1], the system named is db/db mice. Description: Fasting blood glucose in db/db mice. The format is in vivo. On the procedure: Mice homozygous for the diabetes spontaneous mutation Lepr^db (BKS.Cg-Dock7^m+/+Lepr^db/J), which is an obese model of type 2 diabetes as a consequence of truncation of the leptin receptor, have verified plasma glucose levels >500 mg/dL prior to initiation of treatment. Food and water were available ad libitum, and all mice were kept on a 12-hour light/dark cycle. BKS.Cg-Dock7^m+/+Lepr^db/J mice and their heterozygous controls (n=6/group) were administered either saline (control), Ang-(1-7) (500 mcg/kg/day), or Compound 7 500 mcg/kg/day for two weeks by subcutaneous (SC) injection. Mice were fasted overnight prior to assessment of plasma glucose levels. Blood was taken from the saphenous vein and tested for glucose levels by a glucometer.

A further assay deals with T1, Mas (Homo sapiens, UniProt P04201).
T1 construct: expressed in transfected cells
T1 sequence (P04201 1-325): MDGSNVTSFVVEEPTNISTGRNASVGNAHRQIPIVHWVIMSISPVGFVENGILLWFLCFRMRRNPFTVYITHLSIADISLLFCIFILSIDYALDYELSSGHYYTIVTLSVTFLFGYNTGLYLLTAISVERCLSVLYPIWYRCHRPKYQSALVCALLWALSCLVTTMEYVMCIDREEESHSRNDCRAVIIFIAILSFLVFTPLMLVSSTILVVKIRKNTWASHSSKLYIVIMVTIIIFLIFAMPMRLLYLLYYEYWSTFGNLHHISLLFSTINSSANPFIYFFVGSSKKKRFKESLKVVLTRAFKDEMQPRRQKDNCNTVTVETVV
Description: Competition binding assay, displacement of fluorescent Ang(1-7) from Mas-transfected CHO cells. Also on record: concentration or dose not given beside the values. Conditions: CHO cells transfected with Human mas1, on ice. On the procedure: CHO cells stably transfected with recombinant Human mas1 proto-oncogen driven by the human cytomegalovirus were grown to 80% confluency. The cells were detached with trypsin and harvested by centrifugation. Cells were washed three times in progressively colder buffers. The final number of cells per assay was 5×10^5. All subsequent steps were performed on ice. Test compound was added to the cells for 10 minutes prior to addition of fluorescently labeled A(1-7). After 10 minutes further incubation, the cells were washed to remove unbound A(1-7) and the fluorescence bound was read at an excitation of 490 nm and an emission of 520 nm.

Assay [2] has as its system db/db mice. Description: Liver lipid levels, Oil Red O staining, in db/db mice. As to conditions: 500 mcg/kg/day, 14 days. The class given is in vivo. The method, then: The lipid levels found in the liver was evaluated in db/db animals treated for 14 days with vehicle, 500 mcg/kg/day Ang(1-7) or Compound 7. Livers isolated from mice were harvested. Liver tissue sections were washed with cold saline and frozen in the presence of optimum cutting temperature (OCT) formulation. Tissues were then cut into 10-μm sections using a cryostat. Oil Red O staining and H&E staining were performed according to published procedures (Yang et al., 2013). The tissues were observed and images acquired using a light microscope (Olympus BX51) (FIG. 6).

The next assay deals with T2, AT2R (Homo sapiens, UniProt P50052).
T2 sequence (P50052 1-363): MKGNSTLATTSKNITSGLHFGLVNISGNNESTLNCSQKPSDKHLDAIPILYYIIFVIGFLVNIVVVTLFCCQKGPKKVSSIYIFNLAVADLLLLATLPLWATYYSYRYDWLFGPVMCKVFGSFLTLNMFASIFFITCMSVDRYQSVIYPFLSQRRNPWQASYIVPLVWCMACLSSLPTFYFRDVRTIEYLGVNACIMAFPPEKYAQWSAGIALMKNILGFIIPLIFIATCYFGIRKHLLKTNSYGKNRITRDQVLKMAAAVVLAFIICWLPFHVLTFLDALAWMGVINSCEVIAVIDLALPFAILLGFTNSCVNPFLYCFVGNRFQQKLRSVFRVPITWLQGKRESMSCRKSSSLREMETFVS
Description: AT2R displacement assay with radiolabeled Ang II. The class given is binding. As to conditions: displacement of radiolabeled Ang II or analogs; read-out: EC50 displacing Ang II in the AT2R displacement assay. On the procedure: Compound 7 was evaluated in vitro for its ability to compete with ratholabeled Ang II or analogs in a displacement assay for AT1R and AT2R receptors.

The test system of assay [3] is db/db mice. Description: Organ weights (organmegaly) in db/db mice. The format is in vivo. Conditions: 14 days. From the text: Compound 7 (500 mcg/kg/day) or Ang(1-7) (500 mcg/kg/day) treated db/db mice were euphanized after 14 days of treatment. At necropsy, organs were collected for histology and weights. In FIG. 6A to 6C, hearts, left and right kidney normalized to tibia length were weight where db/db treated with Compound 7 were lower than db/db-controls (saline) and db/db treated with Ang(1-7).

Setting [4] is: 500 mcg/kg/day, p<0.05 vs db/db controls.

For `CCCCOC(=O)NS(=O)(=O)c1ccc(OC(F)(F)F)cc1-c1ccc(Cn2ccnc2)cn1` [Compound 7, butyl (2-(5-((1H-imidazol-1-yl)methyl)pyridin-2-yl)-4-(trifluoromethoxy)phenyl)sulfonylcarbamate], the “reduction of peripheral glucose versus vehicle or Ang(1-7) treated mice” value in the assay on db/db mice [1] (500 μg/kg/day, 14 days) is recorded as greater than 40%. Further, the “reduction of FBG in terms of the excess blood glucose over non-diabetic controls” value in the assay with db/db mice [1] (500 mcg/kg/day SC, two weeks) turned out to be 72%. Besides, the “fasting blood glucose (FBG) versus db/db mice treated with saline” value in the assay with db/db mice [1] (500 mcg/kg/day SC, two weeks, p<0.05) is reported as “significantly lower”. For the same compound, the “% Displacement” value on Mas is 28.1%. For the same compound, in the assay on db/db mice [2], the “Oil Red staining of liver (lipid deposition) compared with db/db controls” value is recorded as “reduced Oil Red staining”. Further, the EC50 on AT2R was greater than 10 µM. For the same compound, the right kidney weight result in the assay on db/db mice [3] (500 μg/kg/day) is “trended to be similar to heterozygous control”. In the assay with db/db mice [3] (setting [4]), the “development of cardiomegaly (heart weight normalized to tibia length)” value was “prevent the development of cardiomegaly” and the “development of left kidney hypertrophy (weight normalized to tibia length)” value is listed as “prevent”.

For orientation: EC50 means the concentration giving half of the maximal effect.
